In US20120165403A1, “METHODS OF INHIBITING THE ACTIVITY OF HSP90 AND/OR ARYL HYDROCARBON RECEPTOR” (UNIVERSITY OF ROCHESTER, priority 2004, published 2012):

Experiments:
[1] = molecular target: chicken hsp90 (Gallus gallus, UniProt P11501); assay: Trypsin treatment of in vitro translated hsp90; assay type: biochemical; parameters: made in house; host or cells: TNT rabbit reticulocyte lysate, 35S-labelled; conditions: in absence of AhR or ARNT, trypsin 10 minutes at room temperature
Experimental: Chicken hsp90 was translated in vitro using the TNT RRL system as described supra in the presence of [^35S]Methionine, diluted, incubated with DMSO or EGCG, and treated with trypsin at indicated concentrations for 10 minutes at room temperature. All samples were separated by 10% SDS-PAGE, transferred to PVDF membrane, and visualized by phosphorImager. Results of the experiment are illustrated in FIG. 13. […] Therefore, the ability of EGCG to affect hsp90 conformation is not dependent on the presence of AhR or ARNT.

[2] = tested on: TCDD-mediated CYP1A1 gene induction; assay: CYP1A1 gene induction in HepG2 cells; assay type: cell-based, human
[3] = molecular target: T1, XAP2 (Mus musculus, UniProt O08915); assay: Affinity chromatography on EGCG-conjugated Sepharose, XAP2; assay type: binding
T1 construct: His tag; made in house; host or cells: TNT rabbit reticulocyte lysate; partly purified on TALON cobalt resin
T1 sequence (O08915 1-330): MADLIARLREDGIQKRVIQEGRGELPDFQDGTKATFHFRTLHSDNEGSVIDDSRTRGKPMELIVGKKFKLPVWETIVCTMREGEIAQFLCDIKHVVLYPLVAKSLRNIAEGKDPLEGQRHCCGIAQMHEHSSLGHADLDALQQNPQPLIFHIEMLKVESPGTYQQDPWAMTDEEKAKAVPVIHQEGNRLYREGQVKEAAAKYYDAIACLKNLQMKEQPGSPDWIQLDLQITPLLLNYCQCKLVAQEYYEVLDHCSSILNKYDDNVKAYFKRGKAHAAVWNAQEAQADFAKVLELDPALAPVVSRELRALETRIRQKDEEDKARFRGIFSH
Description: Murine AhR and ARNT cDNA (obtained from J. Whitlock and O. Hankinson, respectively) were inserted into pcDNA3 (Invitrogen, Carlsbad, Calif.). Chicken hsp90 constructs (FIG. 5), c90711hsp (wild-type), c90G94D (wild-type point mutant gly94→Asp (Grenert et al., J. Biol. Chem. 272:23843-23850 (1997), which is hereby incorporated by reference in its entirety), c90D92A (wild-type point mutant Asp92→Ala (Sullivan et al., J. Biol. Chem. 268:20373-20379 (1993), which is hereby incorporated by reference in its entirety), c90N221 (wild-type truncation mutant encoding a.a. 221-728 (Sullivan et al., J. Biol. Chem. 268:20373-20379 (1993), which is hereby incorporated by reference in its entirety)), c90N303 (a.a. 303-728) and c90N538 (a.a. 538-728) were kind gifts from Dr. D. Toft (Rochester, Minn.). The C-terminal truncation mutant c900507 (a.a. 1-221) was obtained from Dr. L. Neckers (Rockville, Md.) (Grenert et al., J. Biol. Chem. 272:23843-23850 (1997); Marcu et al., J. Biol. Chem. 275:37181-37186 (2000), which are hereby incorporated by reference in their entirety). Human p23 cDNA was excised from pQE80-p23 (obtained from W. Chan Stockton, Calif.) by sequential digests using the restriction enzymes Sad (3′-end) and BamHI (5′-end) and inserted into the similarly digested pET28a (Novagen, Madison, Wis.). The mouse histidine-tagged XAP2 construct, pET-AIP (Bell et al., J. Biol. Chem. 275:36407-36414 (2000), which is hereby incorporated by reference in its entirety), was a kind gift from Dr. D. Bell (Nottingham, UK). All constructs are in the T7 orientation with the exception of c900507, which is driven by an SP6 promoter.
AhR, ARNT, hsp90 (wild-type, point mutants, and truncation mutants), p23, and XAP2 were generated (separately) by coupled transcription/translation in rabbit reticulocyte lysate (RRL) using the TNT® system according to the manufacturer's protocol (Promega, Madison Wis.). In this system, ^35S-methionine was included in the transcription/translation mix to generate ^35S-labeled protein.
Immobilized Metal Affinity Chromatography (IMAC) Purification of Histidine-Tagged XAP2. The TALON IMAC method was used for purification of XAP2 from RRL following a modified protocol (Clonetech). A 500 μL (50% slurry) of cobalt resin was washed at room temperature three times with TALON buffer (50 mM Na2PO4, 300 mM NaCl, pH 7.0) according to the manufacturer's protocol. A 175 μL aliquot of undiluted ^35S-XAP2 in RRL was added to a 15 ml conical tube containing the washed resin in TALON buffer for 20 minutes at room temperature end-over-end. […] Each aliquot was collected separately and analyzed for the presence of ^35S-XAP2 by SDS-PAGE followed by Phosphorimaging (PSI; Molecular Dynamics, Sunnyvale, Calif.). […]

O=C(O[C@@H]1Cc2c(O)cc(O)cc2O[C@@H]1c1cc(O)c(O)c(O)c1)c1cc(O)c(O)c(O)c1 [EGCG, epigallocatechin gallate]
effect on hsp90 conformation (trypsin treatment) [1]: altered conformation of hsp90
inhibition of TCDD-mediated CYP1A1 gene induction [2]: inhibited TCDD-mediated CYP1A1 gene induction
binding of XAP2 to EGCG-Sepharose ([3]; 35S-XAP2 in RRL): eluted from EGCG-Sepharose
binding of XAP2 to EGCG-Sepharose ([3]; Hepa cytosol): also eluted from EGCG-Sepharose
binding of purified XAP2 to immobilized EGCG ([3]; His-purified XAP2, devoid of detectable hsp90): not specifically eluted from immobilized EGCG
binding of purified XAP2 after reconstitution ([3]; His-purified XAP2 with purified hsp90 or RRL): restores XAP2 elution
